# Measurements as given in ChEMBL document CHEMBL4004838, “Design and synthesis of novel phenyl -1, 4-beta-carboline-hybrid molecules as potential anticancer agents” (Eur J Med Chem, 2017).
# Legend:
# Format in all cases: functional
# EKVX = assay: Growth inhibition of human EKVX cells incubated for 48 hrs by sulforhodamine B assay
# SF-295 = assay: Growth inhibition of human SF295 cells incubated for 48 hrs by sulforhodamine B assay; conditions: SF-295, 48 h
# A498 = assay: Growth inhibition of human A498 cells incubated for 48 hrs by sulforhodamine B assay; conditions: A498, 48 h
# ACHN [1] = assay: Growth inhibition of human ACHN cells incubated for 48 hrs by sulforhodamine B assay
# RXF 393 = assay: Growth inhibition of human RXF393 cells incubated for 48 hrs by sulforhodamine B assay; conditions: RXF 393, 48 h
# T47D = assay: Growth inhibition of human T47D cells incubated for 48 hrs by sulforhodamine B assay
# SR [2] = assay: Growth inhibition of human SR cells assessed as cell growth at 0.01 uM incubated for 48 hrs by sulforhodamine B assay relative to control; conditions: read-out: Activity
# SF-268 = assay: Growth inhibition of human SF268 cells assessed as cell growth at 0.01 uM incubated for 48 hrs by sulforhodamine B assay relative to control; conditions: SF-268, 48 h, read-out: Activity
# SNB-75 = assay: Growth inhibition of human SNB75 cells assessed as cell growth at 0.01 uM incubated for 48 hrs by sulforhodamine B assay relative to control; conditions: SNB-75, 48 h, read-out: Activity
# SK-MEL-28 [3] = assay: Growth inhibition of human SK-MEL-28 cells assessed as cell growth at 0.01 uM incubated for 48 hrs by sulforhodamine B assay relative to control; conditions: SK-MEL-28, 48 h, read-out: Activity
# OVCAR-5 [4] = assay: Growth inhibition of human OVCAR5 cells assessed as cell growth at 0.01 uM incubated for 48 hrs by sulforhodamine B assay relative to control; conditions: OVCAR-5, 48 h, read-out: Activity
# PC-3 = assay: Growth inhibition of human PC3 cells assessed as cell growth at 0.01 uM incubated for 48 hrs by sulforhodamine B assay relative to control; conditions: PC-3, 48 h, read-out: Activity
# NCI-H23 = assay: Growth inhibition of human NCI-H23 cells assessed as cell growth at 0.1 uM incubated for 48 hrs by sulforhodamine B assay relative to control; conditions: NCI-H23, 48 h, read-out: Activity
# ACHN [5] = assay: Growth inhibition of human ACHN cells assessed as cell growth at 0.1 uM incubated for 48 hrs by sulforhodamine B assay relative to control; conditions: read-out: Activity
# Hs-578T [6] = assay: Growth inhibition of human Hs 578T cells assessed as cell growth at 0.1 uM incubated for 48 hrs by sulforhodamine B assay relative to control; conditions: read-out: Activity
# SF-539 = assay: Growth inhibition of human SF539 cells assessed as cell growth at 1 uM incubated for 48 hrs by sulforhodamine B assay relative to control; conditions: SF-539, 48 h, read-out: Activity
# LOX IMVI [7] = assay: Growth inhibition of human LOXIMVI cells assessed as cell growth at 1 uM incubated for 48 hrs by sulforhodamine B assay relative to control; conditions: read-out: Activity
# Hs-578T [8] = assay: Growth inhibition of human Hs 578T cells assessed as cell growth at 1 uM incubated for 48 hrs by sulforhodamine B assay relative to control; conditions: read-out: Activity
# BT-549 = assay: Growth inhibition of human BT549 cells assessed as cell growth at 1 uM incubated for 48 hrs by sulforhodamine B assay relative to control; conditions: BT-549, 48 h, read-out: Activity
# HL-60(TB) = assay: Growth inhibition of human HL-60(TB) cells assessed as cell growth at 100 uM incubated for 48 hrs by sulforhodamine B assay relative to control; conditions: HL-60, 48 h, read-out: Activity
# K562 = assay: Growth inhibition of human K562 cells assessed as cell growth at 100 uM incubated for 48 hrs by sulforhodamine B assay relative to control; conditions: K562, 48 h, read-out: Activity
# MOLT-4 = assay: Growth inhibition of human MOLT4 cells assessed as cell growth at 100 uM incubated for 48 hrs by sulforhodamine B assay relative to control; conditions: MOLT-4, 48 h, read-out: Activity
# SR [9] = assay: Growth inhibition of human SR cells assessed as cell growth at 100 uM incubated for 48 hrs by sulforhodamine B assay relative to control; conditions: read-out: Activity
# HCT-15 = assay: Growth inhibition of human HCT15 cells assessed as cell growth at 100 uM incubated for 48 hrs by sulforhodamine B assay relative to control; conditions: HCT-15, 48 h, read-out: Activity
# U-251 = assay: Growth inhibition of human U251 cells assessed as cell growth at 100 uM incubated for 48 hrs by sulforhodamine B assay relative to control; conditions: U-251, 48 h, read-out: Activity
# LOX IMVI [10] = assay: Growth inhibition of human LOXIMVI cells assessed as cell growth at 100 uM incubated for 48 hrs by sulforhodamine B assay relative to control; conditions: read-out: Activity
# SK-MEL-28 [11] = assay: Growth inhibition of human SK-MEL-28 cells assessed as cell growth at 100 uM incubated for 48 hrs by sulforhodamine B assay relative to control; conditions: SK-MEL-28, 48 h, read-out: Activity
# OVCAR-3 = assay: Growth inhibition of human OVCAR3 cells assessed as cell growth at 100 uM incubated for 48 hrs by sulforhodamine B assay relative to control; conditions: OVCAR-3, 48 h, read-out: Activity
# OVCAR-5 [12] = assay: Growth inhibition of human OVCAR5 cells assessed as cell growth at 100 uM incubated for 48 hrs by sulforhodamine B assay relative to control; conditions: OVCAR-5, 48 h, read-out: Activity
# SK-OV-3 = assay: Growth inhibition of human SKOV3 cells assessed as cell growth at 100 uM incubated for 48 hrs by sulforhodamine B assay relative to control; conditions: SK-OV-3, 48 h, read-out: Activity
# MDA-MB-468 = assay: Growth inhibition of human MDA-MB-468 cells assessed as cell growth at 100 uM incubated for 48 hrs by sulforhodamine B assay relative to control; conditions: MDA-MB-468, 48 h, read-out: Activity
# [13] = read-out: LC50 (the source's name)
# [14] = read-out: pLC50 (the source's name) (converted)
compound,measurement,setting,value
c1ccc2c3c([nH]c2c1)C(c1ccc(C2NCCc4c2[nH]c2ccccc42)cc1)NCC3 (racemic),GI50,EKVX; read-out: GI50,1.42 µM
same,CC50,EKVX; [13],8.12 µM
same,TGI,EKVX; read-out: TGI,3.39 µM
same,GI50,EKVX; read-out: pGI50 (converted),2.24 µM
same,CC50,EKVX; [14],8.13 µM
same,TGI,EKVX; read-out: pTGI (converted),3.39 µM
same,GI50,SF-295; read-out: GI50,1.62 µM
same,TGI,SF-295; read-out: TGI,3.33 µM
same,GI50,SF-295; read-out: pGI50 (converted),1.62 µM
same,TGI,SF-295; read-out: pTGI (converted),3.31 µM
same,GI50,A498; read-out: GI50,1.64 µM
same,CC50,A498; [13],36.9 µM
same,TGI,A498; read-out: TGI,8.87 µM
same,GI50,A498; read-out: pGI50 (converted),1.66 µM
same,CC50,A498; [14],37.2 µM
same,TGI,A498; read-out: pTGI (converted),8.91 µM
same,CC50,ACHN [1]; [13],4.58 µM
same,GI50,ACHN [1]; read-out: pGI50 (converted),0.708 µM
same,CC50,ACHN [1]; [14],4.57 µM
same,TGI,ACHN [1]; read-out: pTGI (converted),2 µM
same,GI50,RXF 393; read-out: GI50,1.31 µM
same,CC50,RXF 393; [13],5.45 µM
same,TGI,RXF 393; read-out: TGI,2.67 µM
same,GI50,RXF 393; read-out: pGI50 (converted),1.32 µM
same,CC50,RXF 393; [14],5.5 µM
same,TGI,RXF 393; read-out: pTGI (converted),2.69 µM
same,GI50,T47D; read-out: GI50,1.31 µM
same,CC50,T47D; [13],7.13 µM
same,TGI,T47D; read-out: TGI,3.06 µM
same,GI50,T47D; read-out: pGI50 (converted),1.32 µM
same,CC50,T47D; [14],7.08 µM
same,TGI,T47D; read-out: pTGI (converted),3.09 µM
same,growth at 0.01 µM,SR [2],108%
same,growth at 0.01 µM,SF-268,92%
same,growth at 0.01 µM,SNB-75,78%
same,growth at 0.01 µM,SK-MEL-28 [3],95%
same,growth at 0.01 µM,OVCAR-5 [4],91%
same,growth at 0.01 µM,PC-3,96%
same,growth at 0.1 µM,NCI-H23,88%
same,growth at 0.1 µM,ACHN [5],97%
same,growth at 0.1 µM,Hs-578T [6],90%
same,growth at 1 µM,SF-539,88%
same,growth at 1 µM,LOX IMVI [7],48%
same,growth at 1 µM,Hs-578T [8],68%
same,growth at 1 µM,BT-549,85%
same,growth at 100 µM,HL-60(TB),83%
same,growth at 100 µM,K562,78%
same,growth at 100 µM,MOLT-4,76%
same,growth at 100 µM,SR [9],-68%
same,growth at 100 µM,HCT-15,90%
same,growth at 100 µM,U-251,92%
same,growth at 100 µM,LOX IMVI [10],84%
same,growth at 100 µM,SK-MEL-28 [11],93%
same,growth at 100 µM,OVCAR-3,82%
same,growth at 100 µM,OVCAR-5 [12],90%
same,growth at 100 µM,SK-OV-3,-96%
same,growth at 100 µM,MDA-MB-468,-78%
c1ccc2[nH]c(-c3ccc(-c4nccc5c4[nH]c4ccccc45)cc3)nc2c1,GI50,EKVX; read-out: GI50,3.45 µM
same,CC50,EKVX; [13],> 1 µM
same,GI50,EKVX; read-out: pGI50 (converted),3.47 µM
same,CC50,EKVX; [14],> 100 µM
same,TGI,EKVX; read-out: pTGI (converted),17 µM
same,GI50,SF-295; read-out: GI50,1.92 µM
same,LC50,SF-295; read-out: LC50,8.34 µM
same,TGI,SF-295; read-out: TGI,4 µM
same,GI50,SF-295; read-out: pGI50 (converted),1.91 µM
same,LC50,SF-295; read-out: pLC50 (converted),8.32 µM
same,TGI,SF-295; read-out: pTGI (converted),3.98 µM
same,GI50,A498; read-out: GI50,1.14 µM
same,CC50,A498; [13],5.68 µM
same,GI50,A498; read-out: pGI50 (converted),11.5 µM
same,CC50,A498; [14],56.2 µM
same,TGI,A498; read-out: pTGI (converted),25.7 µM
same,GI50,ACHN [1]; read-out: GI50,2.05 µM
same,CC50,ACHN [1]; [13],8.46 µM
same,TGI,ACHN [1]; read-out: TGI,4.17 µM
same,GI50,ACHN [1]; read-out: pGI50 (converted),2.04 µM
same,CC50,ACHN [1]; [14],8.51 µM
same,TGI,ACHN [1]; read-out: pTGI (converted),4.17 µM
same,GI50,RXF 393; read-out: GI50,1.93 µM
same,CC50,RXF 393; [13],6.45 µM
same,TGI,RXF 393; read-out: TGI,3.53 µM
same,GI50,RXF 393; read-out: pGI50 (converted),1.95 µM
same,CC50,RXF 393; [14],6.46 µM
same,TGI,RXF 393; read-out: pTGI (converted),3.55 µM
same,GI50,T47D; read-out: GI50,2.02 µM
same,CC50,T47D; [13],8.34 µM
same,TGI,T47D; read-out: TGI,6.19 µM
same,GI50,T47D; read-out: pGI50 (converted),2.04 µM
same,CC50,T47D; [14],83.2 µM
same,TGI,T47D; read-out: pTGI (converted),6.17 µM
same,growth at 0.01 µM,SR [2],97%
same,growth at 0.01 µM,SF-268,97%
same,growth at 0.01 µM,SNB-75,81%
same,growth at 0.01 µM,SK-MEL-28 [3],96%
same,growth at 0.01 µM,OVCAR-5 [4],94%
same,growth at 0.01 µM,PC-3,98%
same,growth at 0.1 µM,NCI-H23,93%
same,growth at 0.1 µM,ACHN [5],98%
same,growth at 0.1 µM,Hs-578T [6],100%
same,growth at 1 µM,SF-539,98%
same,growth at 1 µM,LOX IMVI [7],81%
same,growth at 1 µM,Hs-578T [8],91%
same,growth at 1 µM,BT-549,90%
same,growth at 100 µM,HL-60(TB),40%
same,growth at 100 µM,K562,59%
same,growth at 100 µM,MOLT-4,54%
same,growth at 100 µM,SR [9],34%
same,growth at 100 µM,HCT-15,71%
same,growth at 100 µM,U-251,75%
same,growth at 100 µM,LOX IMVI [10],49%
same,growth at 100 µM,SK-MEL-28 [11],69%
same,growth at 100 µM,OVCAR-3,58%
same,growth at 100 µM,OVCAR-5 [12],62%
same,growth at 100 µM,SK-OV-3,86%
same,growth at 100 µM,MDA-MB-468,63%
